In US20070048812A1, “Cell-based luminogenic and nonluminogenic proteasome assays” (priority 2005, published 2007):

Key:
calpain I = molecular target: T1, calpain I (Homo sapiens, UniProt P07384); experiment: Lactacystin activity on purified calpain, LLVY-aminoluciferin luminescence; assay type: biochemical; conditions: 0.5 hour preincubation, calcium present (FIG. 2A)
T1 sequence (P07384 1-714): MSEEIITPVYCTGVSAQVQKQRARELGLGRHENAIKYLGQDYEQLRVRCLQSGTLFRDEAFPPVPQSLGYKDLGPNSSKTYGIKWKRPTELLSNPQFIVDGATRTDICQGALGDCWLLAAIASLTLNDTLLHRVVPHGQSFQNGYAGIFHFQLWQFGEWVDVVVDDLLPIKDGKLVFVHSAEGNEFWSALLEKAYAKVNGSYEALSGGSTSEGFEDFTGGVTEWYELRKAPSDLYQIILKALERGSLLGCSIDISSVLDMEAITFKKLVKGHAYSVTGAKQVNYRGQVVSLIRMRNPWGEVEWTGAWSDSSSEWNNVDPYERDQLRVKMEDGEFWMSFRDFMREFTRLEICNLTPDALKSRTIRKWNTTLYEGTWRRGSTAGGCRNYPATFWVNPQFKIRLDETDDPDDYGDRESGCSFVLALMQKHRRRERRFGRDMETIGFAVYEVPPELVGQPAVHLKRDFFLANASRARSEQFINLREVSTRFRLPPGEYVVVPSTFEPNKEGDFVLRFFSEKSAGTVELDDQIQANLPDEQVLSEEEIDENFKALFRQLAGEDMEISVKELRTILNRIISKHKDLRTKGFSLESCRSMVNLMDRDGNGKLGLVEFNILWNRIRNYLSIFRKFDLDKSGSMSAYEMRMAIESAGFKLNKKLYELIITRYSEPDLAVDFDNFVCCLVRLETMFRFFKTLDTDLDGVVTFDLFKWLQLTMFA
T1 sequence (P04632 1-268 partner): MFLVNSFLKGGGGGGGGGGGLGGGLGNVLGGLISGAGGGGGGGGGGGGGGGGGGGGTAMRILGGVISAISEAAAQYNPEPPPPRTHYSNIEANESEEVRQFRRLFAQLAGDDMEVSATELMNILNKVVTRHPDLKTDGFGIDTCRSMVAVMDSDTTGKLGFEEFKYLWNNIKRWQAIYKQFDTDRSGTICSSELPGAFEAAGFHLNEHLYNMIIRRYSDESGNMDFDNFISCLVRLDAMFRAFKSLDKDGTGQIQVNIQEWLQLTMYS
Method: (§1) After a 0.5 hour preincubation in 25 mM HEPES/0.5 mM EDTA/1 mM DTT, a 2×reagent was added (20 μM LLVY-aminoluciferin (SEQ ID NO:1)/3 mM CaCL2/10 mM MgSO4).

proteasomes = proteasomes (Homo sapiens, UniProt P28074); experiment: Lactacystin activity on proteasomes, LLVY-aminoluciferin luminescence with DTT; assay type: biochemical; conditions: at 20 μM, with DTT included (FIG. 2A)
Method: as §1

HL-60 cells = experiment: ATP content (viability), CellTiter-Glo; assay type: cell-based; conditions: 1.5 hours treatment, concentrations tested
Description: (§2) Cell viability measurements were made using CellTiter Glo (Promega Corp.) in a parallel series of samples to confirm that viability was not affected by lactacystin treatment.

U937 cells = experiment: ATP content (viability), CellTiter-Glo; assay type: cell-based; conditions: 1.5 hours treatment, concentrations tested
Description: as §2

[1] = system: proteasome activities in Jurkat cells; experiment: Cell-based luminescent proteasome assay in Jurkat cells; conditions: 1.5 hours inhibitor exposure
Method: FIG. 3. Luminescence versus proteasome inhibitor concentration in Jurkat cells. Jurkatt cells were exposed to inhibitor (AdaAhxL3VS) for 1.5 hours and then contacted with LLVY-aminoluciferin (final concentration of 10 μM; SEQ ID NO:1).
NCI-H226 cells (ATCC #CRL-5826) were maintained as an attached line using RPMI 1640 (Sigma #R-8005) with 10% fetal bovine serum (Hyclone # SH30070) and passaged as needed. Jurkat, HL-60 and U937 suspension cell lines were likewise maintained and passaged. To prepare cells for a cell-based proteasome assay, adherent cells were harvested from the parent flask by removing medium, rinsing the flask with D-PBS and incubated with trypsin-EDTA (Sigma T-4040) for 3 to 4 minutes at 37° C. The trypsin reaction was stopped by adding complete medium containing serum, and cells were then centrifuged 4 minutes at 200×G. The cell pellet was suspended in fresh medium, cells counted by trypan blue exclusion and adjusted to 1.11×10^5 cells/ml. […]
For instance, one vial of V859A (Luciferin Detection Reagent) is suspended with 10 ml of buffer to which 50 to 100 μl of substrate is added, and 100 μl of cells are combined with 100 μl of substrate containing reagent. […] This pre-incubation depletes the free aminoluciferin present in the substrate, thereby reducing potential background luminescence. […]

U266 cells = experiment: Toxicity of proteasome inhibitor incubation to cells; assay type: cell-based

Row | effect on calpain I (calpain I) | inhibition of the proteasome (proteasomes) | Compound | cell viability (ATP assay, CellTiterGlo) (HL-60 cells) | cell viability (ATP assay, CellTiterGlo) (U937 cells) | chymotrypsin-like, trypsin-like and caspase-like proteasome activities [1] | toxicity to the cells, short incubations (U266 cells; incubation for 1 to 2 hours) | toxicity to the cells, longer incubation times (U266 cells; longer incubation times)
1 | minimal effect | incomplete inhibition | CC(=O)N[C@@H](CSC(=O)[C@]1([C@@H](O)C(C)C)NC(=O)[C@H](C)[C@@H]1O)C(=O)O [lactacystin] | did not kill the cells | did not kill the cells | – | – | –
2 | – | – | CC(C)CC(C=CS(C)(=O)=O)NC(=O)[C@H](CC(C)C)NC(=O)[C@H](CC(C)C)NC(=O)CCCCCNC(=O)CCCCCNC(=O)CCCCCNC(=O)CC12CC3CC(CC(C3)C1)C2 (stereo partly shown) [AdaAhx3L3VS, adamantane-acetyl-(6-aminohexanoyl)3-(leucinyl)3-vinyl-(methyl)-sulfone] | – | – | blocked all three activities | not toxic | induced apoptosis
